Reference: PubChem BioAssay AID248 (DTP/NCI, 2004)
Several values for one entry are separate records, joined by “and”; a condition that tells them apart may be missing. Equal entries are not always repeated. Toxic doses and inconclusive results are not listed.

System: L1210 leukemia ip in BDF1 mice, survival T/C
Assay: NCI In Vivo Anticancer Drug Screen. Data for tumor model L1210 Leukemia (intraperitoneal) in B6D2F1 (BDF1) mice
Conditions: endpoint: mean survival time, higher = longer survival
How it was run: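 Survival endpoint. Drug-treated group vs vehicle group, expressed as T divided by C. Tumor passaged by transplantation.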

[1] = dose: 100.0 mg/kg/injection, schedule: Q04DX003 (ip), vehicle: Klucel (hydroxypropylcellulose) (HPC)
[2] = dose: 200.0 mg/kg/injection, schedule: Q01DX009 (ip), vehicle: Klucel (hydroxypropylcellulose) (HPC)
[3] = dose: 200.0 mg/kg/injection, schedule: Q04DX003 (ip), vehicle: saline
[4] = dose: 400.0 mg/kg/injection, schedule: Q04DX003 (ip), vehicle: Klucel (hydroxypropylcellulose) (HPC)
[5] = dose: 100.0 mg/kg/injection, schedule: Q01DX009 (ip), vehicle: Klucel (hydroxypropylcellulose) (HPC)
[6] = dose: 100.0 mg/kg/injection, schedule: Q01DX009 (ip), vehicle: saline with Tween-80
[7] = dose: 200.0 mg/kg/injection, schedule: Q01DX009 (ip), vehicle: saline with Tween-80

In the case of Oc1ccccc1C=NCCN1CC1.Oc1ccccc1C=NCCN1CC1.[Co+2], the T/C (dose: 20.0 mg/kg/injection, schedule: Q04DX002 (ip), vehicle: saline + alcohol) is reported as 102 % of control, the T/C (dose: 40.0 mg/kg/injection, schedule: Q04DX002 (ip), vehicle: saline + alcohol) is reported as 106 % of control and the T/C (dose: 80.0 mg/kg/injection, schedule: Q04DX002 (ip), vehicle: saline + alcohol) is reported as 98 % of control.
With CCCCCCCCCC[As]1c2ccccc2Nc2ccccc21 the T/C (dose: 50.0 mg/kg/injection, schedule: Q04DX002 (ip), vehicle: saline with Tween-80) was 92 % of control, the T/C (dose: 100.0 mg/kg/injection, schedule: Q04DX002 (ip), vehicle: saline with Tween-80) was 89 % of control and the T/C (dose: 200.0 mg/kg/injection, schedule: Q04DX002 (ip), vehicle: saline with Tween-80) was 96 % of control.
With CC1(C)N=C(N)N=C(N)N1c1ccc(CCCCc2ccc(S(=O)(=O)F)cc2Cl)c(Cl)c1 the T/C (dose: 3.12 mg/kg/injection, schedule: Q01DX009 (ip), vehicle: Klucel (hydroxypropylcellulose) (HPC)) was 102 % of control, the T/C (dose: 3.12 mg/kg/injection, schedule: Q04DX003 (ip), vehicle: Klucel (hydroxypropylcellulose) (HPC)) was 97 % of control and the T/C (dose: 6.25 mg/kg/injection, schedule: Q01DX009 (ip), vehicle: Klucel (hydroxypropylcellulose) (HPC)) was 100 % of control. For the same molecule, the T/C (dose: 6.25 mg/kg/injection, schedule: Q01DX009 (ip), vehicle: saline) was 116 % of control, the T/C (dose: 6.25 mg/kg/injection, schedule: Q04DX003 (ip), vehicle: Klucel (hydroxypropylcellulose) (HPC)) was 105 % of control and the T/C (dose: 7.26 mg/kg/injection, schedule: Q01DX009 (ip), vehicle: saline) was 111 % of control. For the same molecule, the T/C (dose: 7.26 mg/kg/injection, schedule: Q04DX003 (ip), vehicle: saline) was 115 % of control, the T/C (dose: 10.89 mg/kg/injection, schedule: Q01DX009 (ip), vehicle: saline) was 117 % of control and the T/C (dose: 12.5 mg/kg/injection, schedule: Q01DX009 (ip), vehicle: Klucel (hydroxypropylcellulose) (HPC)) was 105 % of control. The T/C (dose: 12.5 mg/kg/injection, schedule: Q04DX003 (ip), vehicle: Klucel (hydroxypropylcellulose) (HPC)) was 105 % of control, the T/C (dose: 24.0 mg/kg/injection, schedule: Q01DX009 (ip), vehicle: saline with Tween-80) was 122 % of control and the T/C (dose: 25.0 mg/kg/injection, schedule: Q01DX009 (ip), vehicle: Klucel (hydroxypropylcellulose) (HPC)) was 107 % of control and 122 % of control. For the same molecule, the T/C (dose: 25.0 mg/kg/injection, schedule: Q04DX003 (ip), vehicle: Klucel (hydroxypropylcellulose) (HPC)) was 115 % of control, the T/C (dose: 50.0 mg/kg/injection, schedule: Q04DX003 (ip), vehicle: Klucel (hydroxypropylcellulose) (HPC)) was 112 % of control and the T/C (dose: 75.0 mg/kg/injection, schedule: Q01DX009 (ip), vehicle: saline with Tween-80) was 98 % of control. The T/C (dose: 75.0 mg/kg/injection, schedule: Q01DX009 (ip), vehicle: saline) was 116 % of control, the T/C (dose: 100.0 mg/kg/injection, schedule: Q01DX009 (ip), vehicle: saline) was 88 % of control and the T/C [1] was 118 % of control. For the same molecule, the T/C (dose: 150.0 mg/kg/injection, schedule: Q01DX009 (ip), vehicle: saline) was 96 % of control, the T/C (dose: 150.0 mg/kg/injection, schedule: Q04DX003 (ip), vehicle: saline with Tween-80) was 117 % of control and the T/C [2] was 109 % of control. The T/C [3] was 120 % of control, the T/C (dose: 300.0 mg/kg/injection, schedule: Q01DX009 (ip), vehicle: saline) was 98 % of control and the T/C (dose: 300.0 mg/kg/injection, schedule: Q04DX003 (ip), vehicle: Klucel (hydroxypropylcellulose) (HPC)) was 152 % of control. For the same molecule, the T/C (dose: 300.0 mg/kg/injection, schedule: Q04DX003 (ip), vehicle: saline) was 152 % of control, the T/C [4] was 113 % of control and the T/C (dose: 450.0 mg/kg/injection, schedule: Q04DX003 (ip), vehicle: saline) was 111 % of control.
For CN1CCN(C(=S)[S-])CC1.CN1CCN(C(=S)[S-])CC1.[Zn], the T/C (dose: 2.5 mg/kg/injection, schedule: Q01DX009 (ip), vehicle: acetone) was 96 % of control, the T/C (dose: 5.0 mg/kg/injection, schedule: Q01DX009 (ip), vehicle: acetone) was 96 % of control and the T/C (dose: 5.0 mg/kg/injection, schedule: Q04DX003 (ip), vehicle: acetone) was 100 % of control. For the same molecule, the T/C (dose: 10.0 mg/kg/injection, schedule: Q01DX001 (ip), vehicle: saline) was 91 % of control, the T/C (dose: 10.0 mg/kg/injection, schedule: Q01DX009 (ip), vehicle: acetone) was 108 % of control and the T/C (dose: 10.0 mg/kg/injection, schedule: Q04DX003 (ip), vehicle: acetone) was 92 % of control. The T/C (dose: 20.0 mg/kg/injection, schedule: Q01DX001 (ip), vehicle: saline) was 91 % of control and the T/C (dose: 20.0 mg/kg/injection, schedule: Q04DX003 (ip), vehicle: acetone) was 92 % of control.
Cc1cc2c(c(=O)n1C)COC2=O was tested, and the T/C (dose: 100.0 mg/kg/injection, schedule: Q04DX003 (ip), vehicle: other) was 100 % of control, the T/C (dose: 200.0 mg/kg/injection, schedule: Q04DX003 (ip), vehicle: other) was 100 % of control and the T/C (dose: 400.0 mg/kg/injection, schedule: Q04DX003 (ip), vehicle: other) was 98 % of control.
In the case of CC(=O)OCCC/C(=C/c1ccc(/C=C(\CCCOC(C)=O)[N+](=O)[O-])cc1)[N+](=O)[O-], the T/C (dose: 100.0 mg/kg/injection, schedule: Q01DX001 (ip), vehicle: carboxymethylcellulose (CMC)) is reported as 92 % of control, the T/C (dose: 200.0 mg/kg/injection, schedule: Q01DX001 (ip), vehicle: carboxymethylcellulose (CMC)) is reported as 97 % of control and the T/C (dose: 400.0 mg/kg/injection, schedule: Q01DX001 (ip), vehicle: carboxymethylcellulose (CMC)) is reported as 91 % of control.
C[n+]1ccccc1C(=O)O (tested in a mixture with another compound) was tested, and the T/C (dose: 100.0 mg/kg/injection, schedule: Q04DX003 (ip), vehicle: saline) was 101 % of control and the T/C [3] was 98 % of control.
O=[N+]([O-])/C=C/c1cc2ccccc2[nH]1 was tested, and the T/C (dose: 100.0 mg/kg/injection, schedule: Q01DX009 (ip), vehicle: other) was 96 % of control, the T/C (dose: 200.0 mg/kg/injection, schedule: Q01DX009 (ip), vehicle: other) was 113 % of control and the T/C (dose: 400.0 mg/kg/injection, schedule: Q01DX009 (ip), vehicle: other) was 107 % of control.
With O=C(O)c1cc(-c2ccc3cc4c(cc3c2)OCO4)nc2ccccc12 the T/C (dose: 75.0 mg/kg/injection, schedule: Q01DX001 (ip), vehicle: saline) was 97 % of control, the T/C (dose: 150.0 mg/kg/injection, schedule: Q01DX001 (ip), vehicle: saline) was 101 % of control and the T/C (dose: 300.0 mg/kg/injection, schedule: Q01DX001 (ip), vehicle: saline) was 93 % of control.
With Cc1cc(CS)c(CS)cc1C the T/C [5] was 100 % of control, the T/C [1] was 96 % of control and the T/C [2] was 103 % of control. The T/C (dose: 200.0 mg/kg/injection, schedule: Q04DX003 (ip), vehicle: Klucel (hydroxypropylcellulose) (HPC)) was 93 % of control, the T/C (dose: 400.0 mg/kg/injection, schedule: Q01DX009 (ip), vehicle: Klucel (hydroxypropylcellulose) (HPC)) was 102 % of control and the T/C [4] was 94 % of control.
For Cc1cc2no[n+]([O-])c2cc1C, the T/C (dose: 50.0 mg/kg/injection, schedule: Q01DX009 (ip), vehicle: Klucel (hydroxypropylcellulose) (HPC)) was 108 % of control, the T/C (dose: 100.0 mg/kg/injection, schedule: Q01DX001 (ip), vehicle: Klucel (hydroxypropylcellulose) (HPC)) was 100 % of control and the T/C [5] was 106 % of control. For the same molecule, the T/C (dose: 200.0 mg/kg/injection, schedule: Q01DX001 (ip), vehicle: Klucel (hydroxypropylcellulose) (HPC)) was 96 % of control and the T/C [2] was 114 % of control.
With COc1cc(C)ccc1Cl the T/C (dose: 50.0 mg/kg/injection, schedule: Q01DX009 (ip), vehicle: saline with Tween-80) was 107 % of control, the T/C [6] was 113 % of control and the T/C [7] was 110 % of control.
With CCC(C)C(NC(=O)OCc1ccccc1)C(=O)ON1C(=O)CCC1=O (stereo not given) the T/C [6] was 94 % of control and the T/C [7] was 96 % of control.
CCCCCCCNC(=O)Nc1cc([N+](=O)[O-])ccc1C was tested, and the T/C [6] was 98 % of control, the T/C [7] was 98 % of control and the T/C (dose: 400.0 mg/kg/injection, schedule: Q01DX009 (ip), vehicle: saline with Tween-80) was 94 % of control.
For O=C(NCCF)NC1CCCCCCCCCCC1, the T/C (dose: 9.5 mg/kg/injection, schedule: Q01DX001 (ip), vehicle: other) was 101 % of control, the T/C (dose: 19.0 mg/kg/injection, schedule: Q01DX001 (ip), vehicle: other) was 92 % of control and the T/C (dose: 38.0 mg/kg/injection, schedule: Q01DX001 (ip), vehicle: other) was 121 % of control.
O=C(O)Cc1nc2ccccc2n1CC(=O)O was tested, and the T/C (dose: 100.0 mg/kg/injection, schedule: Q04DX002 (ip), vehicle: Klucel (hydroxypropylcellulose) (HPC)) was 96 % of control, the T/C (dose: 200.0 mg/kg/injection, schedule: Q04DX002 (ip), vehicle: Klucel (hydroxypropylcellulose) (HPC)) was 93 % of control and the T/C (dose: 400.0 mg/kg/injection, schedule: Q04DX002 (ip), vehicle: Klucel (hydroxypropylcellulose) (HPC)) was 100 % of control.
